pIC50: −log10 of the molar value. Where a SMILES comes first, the peptide text is derived from it. Bridges are numbered along the chain shown (N, C = ends). [ ]: non-standard residue; d: D form. ξ: configuration not given here. Oic = O=C(O)[C@@H]1C[C@@H]2CCCC[C@@H]2N1; Trx = NC[C@H]1CC[C@H](C(=O)O)CC1; tBuAla = CC(C)(C)C[C@H](N)C(=O)O; Pen = CC(C)(S)[C@H](N)C(=O)O; Orn = NCCC[C@H](N)C(=O)O; Dap = NC[C@H](N)C(=O)O; ξD = NC(CC(=O)O)C(=O)O; Ahx = NCCCCCC(=O)O
Experiments:
human MASP1 = human MASP1 (Homo sapiens (Human), UniProt P48740); experiment: Biochemical human MASP1 assay (FRET substrate); conditions: Average IC50; recombinant human MASP1; read-out: human MASP1 IC50
Sequence of human MASP1 (P48740 other isoform, or with tags, fused parts or gaps): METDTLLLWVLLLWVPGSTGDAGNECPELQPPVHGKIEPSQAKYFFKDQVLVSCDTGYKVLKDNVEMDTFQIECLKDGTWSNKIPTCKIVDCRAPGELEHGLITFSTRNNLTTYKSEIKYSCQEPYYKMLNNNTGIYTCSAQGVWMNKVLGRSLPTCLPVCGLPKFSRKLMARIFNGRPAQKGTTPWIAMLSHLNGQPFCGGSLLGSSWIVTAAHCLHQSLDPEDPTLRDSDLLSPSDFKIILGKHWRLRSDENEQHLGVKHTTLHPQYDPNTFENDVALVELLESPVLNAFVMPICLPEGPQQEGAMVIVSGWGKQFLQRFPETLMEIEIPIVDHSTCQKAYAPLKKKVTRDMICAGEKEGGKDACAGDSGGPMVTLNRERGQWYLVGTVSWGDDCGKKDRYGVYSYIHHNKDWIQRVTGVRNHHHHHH
In short: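 Recombinant human MASP1 (aa 297-699, C-terminal His tag, HEK293-expressed, Ni-NTA purified) diluted to 20 nM in 50 mM HEPES pH 8,0, 100 mM NaCl, 0,01% CHAPS, 0.5 mM glutathione, preincubated with compound in DMSO; reaction started with 20 μM ABZ/Dnp FRET substrate solution. Fluorescence (ex 320/em 420 nm) after 60-120 min at 32 C; IC50 from % inhibition.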

human MASP2 = human MASP2 (Homo sapiens (Human), UniProt O00187); experiment: Biochemical human MASP2 assay (FRET substrate); conditions: Average IC50; recombinant human MASP2; read-out: human MASP2 IC50
Sequence of human MASP2 (O00187 other isoform, or with tags, fused parts or gaps): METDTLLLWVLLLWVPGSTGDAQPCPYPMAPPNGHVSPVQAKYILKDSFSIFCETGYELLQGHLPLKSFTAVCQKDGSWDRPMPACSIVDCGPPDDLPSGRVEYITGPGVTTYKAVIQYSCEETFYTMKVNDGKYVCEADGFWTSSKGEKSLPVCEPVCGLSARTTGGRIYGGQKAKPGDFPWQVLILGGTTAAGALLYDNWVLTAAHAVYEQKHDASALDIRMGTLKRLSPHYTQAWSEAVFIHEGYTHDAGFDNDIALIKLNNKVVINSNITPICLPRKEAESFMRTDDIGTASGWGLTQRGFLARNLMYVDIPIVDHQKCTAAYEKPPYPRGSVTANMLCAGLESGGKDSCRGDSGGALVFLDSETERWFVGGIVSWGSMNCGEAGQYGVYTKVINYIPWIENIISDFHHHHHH
In short: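 Mature recombinant human MASP2, expressed in HEK293 and purified by Ni-NTA affinity, was reacted with a DABCYL FRET peptide substrate (added as a 60 μM solution) for 60-120 min at 32 C. Fluorescence increase was read at ex 340/em 490 nm; IC50 was derived from % inhibition versus compound concentration.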

[1] = test system: Human C3-DEPOSITION SERUM; experiment: C3 deposition assay, human serum on mannan-coated plates; type: biochemical; conditions: Average IC50, read-out: Human C3-DEPOSITION SERUM IC50
Method: 3. C3 Deposition Assay (Human, Rat, Mouse, Dog, Pig))
The C3 deposition assay was conducted essentially as described (reference). Multiwell plates (Greiner-Nunc 384 Maxi Sorp #464718) were coated over night with Mannan from Saccharomyces cerevisiae (Sigma M7504, 10 μg/mL in 0.05 M carbonate-bicarbonate buffer, pH 9.6) at 4° C. Wells were washed three times with TBS and subsequently incubated for 2 hours with 50 μL of 1% bovine serum albumin (BSA) in Tris-buffered saline (TBS) at 37° C. in order to block non-specific binding. After this step and each of the following incubation steps wells were washed three times with C3 wash buffer (TBS; 0.05% Tween 20; 5 mM CaCl2). […] When appropriately developed the color reaction was stopped by addition of 25 μL of stop solution (Sigma S5814) and quantified on a photometer by measuring absorption at a wavelength of 450 nm. Antibodies were diluted in C3 wash buffer supplemented with 0.5% BSA.

Row | SMILES | pIC50 (human MASP1) | pIC50 (human MASP2) | pIC50 [1]
1 | CC[C@H](C)[C@@H]1NC(=O)[C@@H]2CCCN2C(=O)[C@H]([C@@H](C)CC)NC(=O)[C@H]2NC(=O)[C@H]([C@@H](C)CC)NC(=O)[C@@H]3CCCN3C(=O)[C@@H]3CCCN3C(=O)[C@H](CC(C)(C)C)NC(=O)[C@H](CO)NC(=O)[C@H](CCCNC(=N)N)NC(=O)[C@H](CO)NC(=O)[C@H](CSSC2(C)C)NC1=O [Example 88, N-{3-[(6S,9S,12S,15S,18R,21S,23aS,29S,32R,35S,37aS,42aS)-21,29,35-tri[(2S)-butan-2-yl]-6-(2,2-dimethylpropyl)-9,15-bis(hydroxymethyl)-43,43-dimethyl-5,8,11,14,17,20,23,28,31,34,37,42-dodecaoxotetracontahydro-1H,5H-18,32-(methanodithiomethano)tripyrrolo[1,2-a:1′,2′-d:1″,2″-p][1,4,7,10,13,16,19,22,25,28,31,34]-dodecaazacyclohexatriacontin-12-yl]propyl}guanidine hydrogen chloride] (cyclo(CSRS[tBuAla]PPI[Pen]IPI); disulfide 1-9) | 6.00 | 6.00 | 4.30
2 | CC[C@H](C)[C@@H]1NC(=O)CNC(=O)[C@H]2CC[C@@H](CC2)CNC(=O)CNC(=O)CC(C(N)=O)NC(=O)[C@@H]2CCCN2C(=O)[C@H]([C@@H](C)CC)NC(=O)[C@H]2NC(=O)[C@H]([C@@H](C)CC)NC(=O)[C@@H]3CCCN3C(=O)[C@@H]3CCCN3C(=O)[C@H](CC(C)(C)C)NC(=O)[C@H](CO)NC(=O)[C@H](CCCNC(=N)N)NC(=O)[C@H](CO)NC(=O)[C@H](CSSC2(C)C)NC1=O (stereo partly drawn) [Example 62, (1R,4S,10S,21S,24S,30S,33R,36S,39S,42S,45S,51S,57S,60S)-4,30,60-tri[(2S)-butan-2-yl]-39-(3-carbamimidamidopropyl)-45-(2,2-dimethylpropyl)-36,42-bis(hydroxymethyl)-63,63-dimethyl-2,5,11,15,18,25,28,31,34,37,40,43,46,52,58,61-hexadecaoxo-64,65-dithia-3,6,12,16,19,26,29,32,35,38,41,44,47,53,59,62-hexadecaazahexacyclo[31.29.4.2^21,240.0^6,100.0^47,510.0^53,57]octahexacontane-13-carboxamide] (G[Trx]GICSRS[tBuAla]PPI[Pen]IP[ξD]-NH2; disulfide 5-13; lactam N-16) | 7.66 | 6.27 | 6.83
3 | CC[C@H](C)[C@@H]1NC(=O)[C@H](C)NC(=O)CNC(=O)C[C@@H](C(N)=O)NC(=O)[C@@H]2CCCN2C(=O)[C@H]([C@@H](C)CC)NC(=O)[C@@H]2CSSC[C@H](NC1=O)C(=O)N[C@@H](CO)C(=O)N[C@@H](CCCNC(=N)N)C(=O)N[C@@H](CO)C(=O)N[C@@H](CC(C)C)C(=O)N1CCC[C@H]1C(=O)N1CCC[C@H]1C(=O)N[C@@H]([C@@H](C)CC)C(=O)N2 [Example 37] (GAICSRSLPPICIPD-NH2; disulfide 4-12; lactam N-15) | 7.80 | 6.85 | 7.23
4 | CC[C@H](C)[C@@H]1NC(=O)[C@H](CN)NC(=O)[C@H](CN)NC(=O)[C@@H]2CCCN2C(=O)[C@H]([C@@H](C)CC)NC(=O)[C@H]2NC(=O)[C@H]([C@@H](C)CC)NC(=O)[C@@H]3CCCN3C(=O)[C@@H]3CCCN3C(=O)[C@H](CC(C)(C)C)NC(=O)[C@H](CO)NC(=O)[C@H](CCCNC(=N)N)NC(=O)[C@H](CO)NC(=O)[C@H](CSSC2(C)C)NC1=O [Example 97] | 8.30 | 6.12 | 7.25
5 | CC[C@H](C)[C@@H]1NC(=O)CCCCCNC(=O)[C@@H]2CCCN2C(=O)[C@H]([C@@H](C)CC)NC(=O)[C@H]2NC(=O)[C@H]([C@@H](C)CC)NC(=O)[C@@H]3CCCN3C(=O)[C@@H]3CCCN3C(=O)[C@H](CC(C)(C)C)NC(=O)[C@H](CO)NC(=O)[C@H](CCCNC(=N)N)NC(=O)[C@H](CO)NC(=O)[C@H](CSSC2(C)C)NC1=O [Example 51] (cyclo([Ahx]ICSRS[tBuAla]PPI[Pen]IP); disulfide 3-11) | 8.20 | 7.77 | 7.55
6 | CC[C@H](C)[C@@H]1NC(=O)[C@@H](N)CNC(=O)[C@@H]2CCCN2C(=O)[C@H]([C@@H](C)CC)NC(=O)[C@H]2NC(=O)[C@H]([C@@H](C)CC)NC(=O)[C@@H]3C[C@@H]4CCCC[C@@H]4N3C(=O)[C@@H]3CCCN3C(=O)[C@H](CC(C)C)NC(=O)[C@H](CO)NC(=O)[C@H](CCCNC(=N)N)NC(=O)[C@H](CO)NC(=O)[C@H](CSSC2(C)C)NC1=O [Example 85] (H-[Dap]ICSRSLP[Oic]I[Pen]IP; lactam 1-C; disulfide 3-11) | 6.00 | 6.00 | 5.50
7 | CC[C@H](C)[C@@H]1NC(=O)[C@H](CN)NC(=O)[C@@H]2CCCN2C(=O)[C@H]([C@@H](C)CC)NC(=O)[C@H]2NC(=O)[C@H]([C@@H](C)CC)NC(=O)[C@@H]3C[C@@H]4CCCC[C@@H]4N3C(=O)[C@H]3CCCN3C(=O)[C@H](CC(C)C)NC(=O)[C@H](CO)NC(=O)[C@H](CCCNC(=N)N)NC(=O)[C@H](CO)NC(=O)[C@H](CSSC2(C)C)NC1=O [Example 87] (cyclo(CSRSL[dP][Oic]I[Pen]IP[Dap]I); disulfide 1-9) | 7.34 | 6.15 | 7.10
8 | CC[C@H](C)[C@@H]1NC(=O)[C@H](CN)NC(=O)[C@H](CN)NC(=O)[C@H]([C@@H](C)CC)NC(=O)[C@H]2NC(=O)[C@H]([C@@H](C)CC)NC(=O)[C@@H]3CCCN3C(=O)[C@@H]3CCCN3C(=O)[C@H](CC(C)(C)C)NC(=O)[C@H](CO)NC(=O)[C@H](CCCNC(=N)N)NC(=O)[C@H](CO)NC(=O)[C@H](CSSC2(C)C)NC1=O [Example 57, N-{3-[(5aS,11S,14S,17S,20S,23R,26S,29S,32S,35S,38R,41S,43aS)-29,32-bis(aminomethyl)-26,35,41-tri[(2S)-butan-2-yl]-11-(2,2-dimethylpropyl)-14,20-bis(hydroxymethyl)-44,44-dimethyl-5,10,13,16,19,22,25,28,31,34,37,40,43-tridecaoxodotetracontahydro-5H-23,38-(methanodithiomethano)dipyrrolo[1,2-a:1′,2′-d]-[1,4,7,10,13,16,19,22,25,28,31,34,37]tridecaazacyclononatriacontin-17-yl]propyl}guanidine] (cyclo(CSRS[tBuAla]PPI[Pen]I[Dap][Dap]I); disulfide 1-9) | 7.34 | 6.47 | 6.63
9 | CC[C@H](C)[C@@H]1NC(=O)[C@H](C)NC(=O)[C@@H](N)CSSC[C@@H](C(N)=O)NC(=O)[C@H](CC(=O)O)NC(=O)[C@@H]2CCCN2C(=O)[C@H]([C@@H](C)CC)NC(=O)[C@H]2NC(=O)[C@H]([C@@H](C)CC)NC(=O)[C@@H]3CCCN3C(=O)[C@@H]3CCCN3C(=O)[C@H](CC(C)(C)C)NC(=O)[C@H](CO)NC(=O)[C@H](CCCNC(=N)N)NC(=O)[C@H](CO)NC(=O)[C@H](CSSC2(C)C)NC1=O [Example 50] (H-CAICSRS[tBuAla]PPI[Pen]IPDC-NH2; disulfide 1-16, 4-12) | 7.89 | 6.68 | 6.64
10 | CC[C@H](C)[C@@H]1NC(=O)[C@H](C)NC(=O)[C@@H](N)CCCNC(=O)C[C@@H](C(N)=O)NC(=O)[C@@H]2CCCN2C(=O)[C@H]([C@@H](C)CC)NC(=O)[C@H]2NC(=O)[C@H]([C@@H](C)CC)NC(=O)[C@@H]3CCCN3C(=O)[C@@H]3CCCN3C(=O)[C@H](CC(C)(C)C)NC(=O)[C@H](CO)NC(=O)[C@H](CCCNC(=N)N)NC(=O)[C@H](CO)NC(=O)[C@H](CSSC2(C)C)NC1=O [Example 61] (H-[Orn]AICSRS[tBuAla]PPI[Pen]IPD-NH2; lactam 1-15; disulfide 4-12) | 8.51 | 6.51 | 7.63
11 | CC[C@H](C)[C@@H]1NC(=O)[C@H]2NC(=O)[C@H]([C@@H](C)CC)NC(=O)[C@@H]3CCCN3C(=O)[C@@H]3CCCN3C(=O)[C@H](CC(C)(C)C)NC(=O)[C@H](CO)NC(=O)[C@H](CCCNC(=N)N)NC(=O)[C@H](CO)NC(=O)[C@H](CSSC2(C)C)NC(=O)[C@H]([C@@H](C)CC)NC(=O)[C@@H](N)CCCNC1=O [Example 66, N-{3-[(5aS,11S,14S,17S,20S,23R,26S,29R,35S,38S,41S,43aS)-29-amino-26,35,41-tri[(2S)-butan-2-yl]-11-(2,2-dimethylpropyl)-14,20-bis(hydroxymethyl)-44,44-dimethyl-5,10,13,16,19,22,25,28,34,37,40,43-dodecaoxodotetracontahydro-5H-23,38-(methanodithiomethano)dipyrrolo[2,1-1:2′,1′-o][1,4,7,10,13,16,19,22,25,28,31,34]dodecaazacyclononatriacontin-17-yl]propyl}guanidine] (H-[Orn]ICSRS[tBuAla]PPI[Pen]I; lactam 1-C; disulfide 3-11) | 8.09 | 7.66 | 7.59

— patent US20240010684A1, “MASP INHIBITORY COMPOUNDS AND USES THEREOF” (BAYER AKTIENGESELLSCHAFT, priority 2020, published 2024)
